Experimental data: paper PMC3221659, “Targeting of Mitochondria-Endoplasmic Reticulum by Fluorescent Macrocyclic Compounds” (PLoS ONE, 2011)

Experiments:
[1] = system: human breast cancer cells (MCF-7); assay: MTT cytotoxicity assay, MCF-7; type: cell-based; conditions: MCF-7 cells; for IC50: Homo sapiens, MCF7, MTT, 48 h
Protocol: (§1) One of the key issues to consider a probe suitable for living cells use is its cellular toxicity. In this context, the cytotoxicity of the five synthesised macrocyclic compounds is assessed by a 3-(4,5-dimethylthiazol-2-yl)-2,5-diphenyltetrazolium bromide (MTT) assay. The cytotoxicity of the starting material 1,10-phenanthroline-2,9-dicarbaldehyde is measured by MTT assay for comparison. In this quantitative colorimetric assay, the amount of MTT reduced by cells to its formazan derivative is quantified spectroscopically at 570 nm and is considered equivalent to the number of viable cells. The cytotoxicity of the referred compounds is evaluated using human breast cancer cells (MCF-7), non-cancerous human dermal fibroblasts (NHDF) and human adult dermal skin fibroblasts (designated P14) obtained from the breast biopsy specimen of a person diagnosed with breast cancer. All cells have been exposed to the six different compounds in five concentrations ranging from 10 nM to 100 µM during a period of exposition of 48 h.
(§2) Cell viability was studied quantifying the extent of the reduction of 3-(4,5-dimethylthiazol-2-yl)-2,5-diphenyltetrazolium bromide (MTT) according to a previously described procedure. Briefly, cells were seeded in 48-well plates (0.5×10^4 cells/well) in the culture medium containing FBS and after 48 h they were treated with five concentrations (10 nM and 100 nM, 1 µM, 10 µM and 100 µM) of the different compounds for 48 h, with untreated cells serving as control. At the end of incubation the media in wells were removed and replaced with fresh media and MTT solution and incubated at 37°C for 4 h. Thereafter, media-containing MTT were removed and formazan crystals were dissolved and absorbance was recorded in Biorad 550 microplate reader at 570 nm. The extent of cell death was expressed as the percentage of cell viability in comparison with control cells.
(§3) All experiments were performed in triplicate. The IC50 values were calculated from the obtained dose-response curve by sigmoid fitting. Graphical results of citotoxicity were expressed as the average values ± SEM (standard error of mean). Comparison among multiple groups was analyzed by using a one-way ANOVA followed by Dunnet's post hoc tests to determine significant differences among the means. Difference between groups was considered statistically significant at P<0.05.

NHDF cells [2] = assay: Annexin V-FITC / PI flow cytometry, NHDF; type: cell-based, human; conditions: 10 µM, 48 h
Protocol: For this purpose, the fluorescein isothiocyanate (FITC)-conjugated annexin V - PI (propidium iodide) flow cytometry assay is employed, allowing the identification of apoptosis and necrosis. Thus, MCF-7 and NHDF cells are treated with two concentrations (10 nM and 10 µM) of each compound for 48 h. These concentrations are […], except for [32]phen2N4 on MCF-7 cells.
To detect apoptosis, cells were stained with propidium iodide (PI) and fluorescein isothiocyanate (FITC)-conjugated annexin V using an Annexin V-FITC Apoptosis Detection Kit (BD PharmingenTM). Briefly, cells were seeded in […] flasks in the culture medium containing FBS and after reaching approximated 90% confluence they were treated with two concentrations (10 nM and 10 µM) of each compound for 48 h, with untreated cells serving as control. At the end of incubation, cells were harvested by trypsin-EDTA treatment, washed twice with cold PBS and resuspended with 1× binding buffer (1 mL). […] After the addition of […] of 1× binding buffer, stained cells were subjected to fluorescence-activated cell sorter (FACS) analysis using a FACSCalibur flow cytometer. The FITC fluorescence was measured between 515 and 545 nm and the PI fluorescence between 564 and 606 nm. […]

[3] = system: human adult dermal skin fibroblasts (P14); assay: MTT cytotoxicity assay, P14; type: cell-based; conditions: P14 cells, 48 h; for reduction in cell viability (approximately 50%): 0.1 µM; for IC50: Homo sapiens, Skin fibroblast
Protocol: as §1, §2, §3

NHDF cells [4] = assay: Mitochondrial membrane potential by flow cytometry (CMXRos / MitoTracker Green), NHDF; type: cell-based, human; conditions: 10 µM, 48 h
Excerpt: (§4) In order to study the effects of the compounds in mitochondrial membrane potential (MMP) of MCF-7 and NHDF cells, flow cytometry assay was employed to monitor any fluorescence changes in MitoTracker Green™ and red fluorescence of chloromethyl-X-rosamine (CMXRos), treatment with the uncoupler 2,4-dinitrophenol (2,4-DNP) to collapse the MMP. While MitoTracker Green™ staining was relatively unaffected by changes in MMP, the CMXRos staining of mitochondria is sensitive to MMP [30]. Also, laser scanning confocal microscopy was employed to analyze changes in mitochondrial localization by treated cells with uncoupler 2,4-DNP and staining with MitoTracker Green™ and compounds.
(§5) The assessment of mitochondrial membrane potential was determined as described previously. Briefly, the cells were incubated with 200 nM of MitoTracker Green™ and 200 nM of Mitotracker Red (CMXRos) for 30 min prior to harvesting. The 2,4-dinitrophenol (DNP) was used as a mitochondrial uncoupler (300 µM, 2 h). The cells were treated with compounds concentration 10 µM for 48 h. The relative mitochondrial membrane potential was analyzed by flow cytometry by measuring the mean intensity of FL1 (green) and FL4 (red) channels. The FL4/FL1 ratio intensities of compounds treated and positive control (DNP) were compared and indicated if the compounds change the mitochondrial membrane potential of the cells.

MCF-7 cells = assay: Mitochondrial membrane potential by flow cytometry (CMXRos / MitoTracker Green), MCF-7; type: cell-based, human; conditions: 10 µM, 48 h
Excerpt: as §4, §5

[5] = system: non-cancerous human dermal fibroblasts (NHDF); assay: MTT cytotoxicity assay, NHDF; type: cell-based; conditions: NHDF cells, 48 h
Protocol: as §1, with “All cells have been exposed to the six different compounds in five concentrations ranging from 10 nM to 100 µM during a period of exposition of 48 h.” left out
Cell viability was studied quantifying the extent of the reduction of 3-(4,5-dimethylthiazol-2-yl)-2,5-diphenyltetrazolium bromide (MTT) according to a previously described procedure. […] Thereafter, media-containing MTT were removed and formazan crystals were dissolved and absorbance was recorded in Biorad 550 microplate reader at 570 nm. The extent of cell death was expressed as the percentage of cell viability in comparison with control cells. […]

[6] = system: MCF-7, NHDF and P14 cells; assay: Fluorescence and confocal microscopy: uptake and sub-cellular localization; type: cell-based, human; conditions: 10 nM and 100 µM over 48 h
Protocol: The timescale of trafficking of these compounds and their sub-cellular localization have been subsequently examined in MCF-7, NHDF and P14 cells using fluorescence microscopy. The cells are mounting on 0.1 mm thick glass cover slips by withdrawal of the respectively growth medium.
The incubation times to test the ability compounds to penetrate into cells varied from 5 min to 48 h, and concentrations onto the cells were 10 nM and 100 µM by dissolving in appropriate medium. […] By analyzing each image recorded, all the compounds in all cells rapidly crossed the cell membrane (5 min) and induced a slight stain in the first minutes of incubation, depending on the type of cells. However, for incubation times longer than 30 min, it seems that this difference in the stained disappeared, thus appearing that the compounds were localized into an organelle of the cytoplasm.
Besides, the subcellular localization of the compounds has been confirmed by co-staining with MitoTracker™ (25 nM, 45 min of incubation) and ER-Tracker™ (100 nM, 30 min of incubation) probes in MCF-7, NHDF and P14 cells, with compound concentrations of 10 nM and 100 nM and for incubation times of 1 h.
After growth in the glass bottom culture dishes coated with collagen (1×10^4 cells/dish), the cells were incubated in the dark at 37°C with 10 nM of all the compounds and analyzed from 5 min to 48 h. […]

Row | SMILES | IC50 [1] [µM] | percentage of late apoptotic cells (NHDF cells [2]) | reduction in cell viability (approximately 50%) [3] | effect on mitochondrial membrane potential (FL4/FL1 ratio) versus positive control 2,4-DNP (NHDF cells [4]) | effect on mitochondrial membrane potential (red fluorescence, FL4/FL1) versus positive control 2,4-DNP (MCF-7 cells) | IC50 [5] [µM] | IC50 [3] [µM] | cytotoxicity ([1]; 10 nM to 10 µM) | signs of cytotoxicity in microscopy [6]
1 | O=Cc1ccc2ccc3ccc(C=O)nc3c2n1 [1,10-phen, 1,10-phenanthroline-2,9-dicarbaldehyde, reference compound] | > 100 | about 20% | – | – | – | – | – | – | –
2 | c1cc2ccc3ccc4nc3c2nc1CN1CCCCCCN(C4)Cc2ccc3ccc4ccc(nc4c3n2)CN2CCCCCCN(Cc3ccc4ccc5ccc(nc5c4n3)C2)Cc2ccc3ccc4ccc(nc4c3n2)C1 [cryptphen] | > 100 | – | not observed | modify the MMP | – | – | – | – | –
3 | c1cc2ccc3ccc4nc3c2nc1CNCCCCCCNC4 [[16]phenN2] | > 100 | about 20% | not observed | modify the MMP | decrease of red fluorescence | – | – | – | –
4 | CN1CCCNCc2cccc(n2)CNCCCN(C)CCCNCc2cccc(n2)CNCCC1 [Me2[28]py2N6] | > 100 | – | – | – | decrease of red fluorescence | 69.7 ± 3.02 | 36.8 ± 4.68 | – | –
5 | c1cc2ccc3ccc4nc3c2nc1CNCCCCCCNCc1ccc2ccc3ccc(nc3c2n1)CNCCCCCCNC4 [[32]phen2N4] | < 0.01 | – | – | – | – | 78.9 ± 2.82 | 85.3 ± 1.79 | highly cytotoxic | no relevant signs of cytotoxicity
6 | c1cc2ccc3ccc4nc3c2nc1CNCCNCCNCc1ccc2ccc3ccc(nc3c2n1)CNCCNCCNC4 [[30]phen2N6] | > 100 | – | – | – | – | – | – | – | –
